According to patent US9127015B2, “Tricyclopyrazole derivatives” (NERVIANO MEDICAL SCIENCES S.R.L., priority 2009, dated 2015):

Assays:
Type in all cases: biochemical
[1] = target: CDC7/DBF4 (Homo sapiens, UniProt O00311); assay: Inhibition assay of Cdc7 activity (Dowex resin capture, 33P-ATP, MCM2 substrate); conditions: Enzyme CDC7/DBF4
Description: (§1) The inhibitory activity of putative kinase inhibitors and the potency of selected compounds were also determined using a trans-phosphorylation assay.
(§2) Specific peptide or protein substrates are trans-phosphorylated by their specific ser-thr or tyr kinase in the presence of ATP traced with ^33P-γ-ATP, and in the presence of their own optimal buffer and cofactors. At the end of the phosphorylation reaction, more than 98% unlabeled ATP and radioactive ATP is captured by an excess of the ion exchange dowex resin; the resin then settles down to the bottom of the reaction plate by gravity. Supernatant is subsequently withdrawn and transferred into a counting plate, then evaluated by β-counting.
(§3) As example herein are reported the assay conditions used for testing the compounds of formula (I) against cdc7 and cdk2 kinase.
Inhibition Assay of Cdc7 Activity
The inhibiting activity of putative Cdc7 inhibitors and the potency of selected compounds is determined through a method of assay based on the use of Dowex resin capture technology.
The assay consists of the transfer of radioactivity labeled phosphate moiety by the kinase to an acceptor substrate.
The resulting ^33P-labeled product is separated from unreacted tracer, transferred into a scintillation cocktail and light emitted is measured in a scintillation counter. […]

[2] = target: T1, CDK2/CYCA (Homo sapiens, UniProt P24941); assay: Inhibition assay of Cdk2/Cyclin A activity (33P-ATP, histone H1 substrate); conditions: Enzyme CDK2/CYCA
T1 construct: host or cells: baculovirus expression system (co-expression)
Description: as §1, §2, §3
To each well of the plate were added: • 10 μl test compound (10 increasing concentrations in the nM to uM range to generate a dose-response curve). The solvent for test compounds contained 3% DMSO. (final concentration 1%) • 10 μl substrate MCM2 ([…] final concentration), a mixture of cold ATP ([…] final concentration) and radioactive ATP (1/5000 molar ratio with cold ATP). • 10 μl enzyme (Cdc7/Dbf4, 2 nM final concentration) that started the reaction. […]

[3] = target: GSK3beta (Homo sapiens, UniProt P49841); assay: Kinase inhibition assay, IC50 (Table A); conditions: Enzyme GSK3beta
Description: (§4) The inhibiting activity of putative kinase inhibitors and the potency of selected compounds is determined through a method of assay based on the use of the Kinase-Glo® Luminescent Kinase Assay (commercially available from Promega corporation and described in Koresawa, M. and Okabe, T. (2004) High-throughput screening with quantitation of ATP consumption: A universal non-radioisotope, homogeneous assay for protein kinase. Assay Drug Dev. Technol. 2, 153-60).
as §1, §2
(§5) Reaction conditions are target (enzyme) dependent and thus undergo individual adaptations. Also the buffer conditions may vary depending on the kinase of interest. The assay can be used with virtually any kinase and substrate combination and is suitable for all type of protein kinases, such as ABL, ACK1, AKT1, ALK, AUR1, AUR2, BRK, BUB1, CDC7/DBF4, CDK21CYCA, CHK1, CK2, EEF2K, EGFR1, EphA2, EphB4, ERK2, FAK, FGFR1, FLT3, GSK3beta, Haspin, IGFR1, IKK2, IR, JAK1, JAK2, JAK3, KIT, LCK, LYN, MAPKAPK2, MELK, MET, MNK2, MPSI, MST4, NEK6, NIM1, P38alpha, PAK-4, PDGFR, PDK1, PERK, PIM1, PIM2, PKAalpha, PKCbeta, PLK1, RET, ROS1, SULU1, Syk, TLK2, TRKA, TYK, VEGFR2, VEGFR3, ZAP70.

[4] = target: KIT (Homo sapiens, UniProt P10721); assay: Kinase inhibition assay, IC50 (Table A); conditions: Enzyme KIT
Description: as §4, §1, §2, §5

[5] = target: MELK (Homo sapiens, UniProt Q14680); assay: Kinase inhibition assay, IC50 (Table A); conditions: Enzyme MELK
Description: as §4, §1, §2, §5

Chain of CDC7/DBF4 (O00311 whole entry): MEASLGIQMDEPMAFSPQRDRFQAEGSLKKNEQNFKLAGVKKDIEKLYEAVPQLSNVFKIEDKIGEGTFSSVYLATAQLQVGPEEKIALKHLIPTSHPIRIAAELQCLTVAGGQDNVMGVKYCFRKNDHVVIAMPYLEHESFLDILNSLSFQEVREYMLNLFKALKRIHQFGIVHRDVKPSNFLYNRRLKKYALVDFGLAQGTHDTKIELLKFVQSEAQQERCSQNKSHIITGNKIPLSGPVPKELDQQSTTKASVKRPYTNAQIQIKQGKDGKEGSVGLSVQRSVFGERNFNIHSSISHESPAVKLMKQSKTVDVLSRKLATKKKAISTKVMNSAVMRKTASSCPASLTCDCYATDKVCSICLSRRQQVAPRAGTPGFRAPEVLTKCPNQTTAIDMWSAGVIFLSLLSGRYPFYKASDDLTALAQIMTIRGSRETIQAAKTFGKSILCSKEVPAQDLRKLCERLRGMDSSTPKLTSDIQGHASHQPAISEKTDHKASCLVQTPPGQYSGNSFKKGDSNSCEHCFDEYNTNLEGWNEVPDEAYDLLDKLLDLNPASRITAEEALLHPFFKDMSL
Chain of CDC7/DBF4 (Q9UBU7 whole entry partner): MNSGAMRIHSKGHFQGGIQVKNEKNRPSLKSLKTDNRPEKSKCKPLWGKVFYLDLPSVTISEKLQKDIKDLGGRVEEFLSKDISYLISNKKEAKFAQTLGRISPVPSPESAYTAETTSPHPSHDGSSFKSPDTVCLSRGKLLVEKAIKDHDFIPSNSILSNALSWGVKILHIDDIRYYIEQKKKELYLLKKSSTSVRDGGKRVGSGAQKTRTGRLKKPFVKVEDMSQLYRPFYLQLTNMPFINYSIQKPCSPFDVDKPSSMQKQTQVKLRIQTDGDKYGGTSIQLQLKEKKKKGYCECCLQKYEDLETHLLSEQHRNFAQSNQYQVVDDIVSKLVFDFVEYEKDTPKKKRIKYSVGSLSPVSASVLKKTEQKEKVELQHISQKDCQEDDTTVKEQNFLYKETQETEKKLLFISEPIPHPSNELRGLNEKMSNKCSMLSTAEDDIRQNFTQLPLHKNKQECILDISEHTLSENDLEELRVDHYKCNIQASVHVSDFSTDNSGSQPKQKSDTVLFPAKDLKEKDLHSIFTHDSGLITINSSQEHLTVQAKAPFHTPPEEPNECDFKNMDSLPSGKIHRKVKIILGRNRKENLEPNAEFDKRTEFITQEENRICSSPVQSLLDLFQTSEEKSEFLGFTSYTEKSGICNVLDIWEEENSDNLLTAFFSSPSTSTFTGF
Chain of KIT (P10721 26-976): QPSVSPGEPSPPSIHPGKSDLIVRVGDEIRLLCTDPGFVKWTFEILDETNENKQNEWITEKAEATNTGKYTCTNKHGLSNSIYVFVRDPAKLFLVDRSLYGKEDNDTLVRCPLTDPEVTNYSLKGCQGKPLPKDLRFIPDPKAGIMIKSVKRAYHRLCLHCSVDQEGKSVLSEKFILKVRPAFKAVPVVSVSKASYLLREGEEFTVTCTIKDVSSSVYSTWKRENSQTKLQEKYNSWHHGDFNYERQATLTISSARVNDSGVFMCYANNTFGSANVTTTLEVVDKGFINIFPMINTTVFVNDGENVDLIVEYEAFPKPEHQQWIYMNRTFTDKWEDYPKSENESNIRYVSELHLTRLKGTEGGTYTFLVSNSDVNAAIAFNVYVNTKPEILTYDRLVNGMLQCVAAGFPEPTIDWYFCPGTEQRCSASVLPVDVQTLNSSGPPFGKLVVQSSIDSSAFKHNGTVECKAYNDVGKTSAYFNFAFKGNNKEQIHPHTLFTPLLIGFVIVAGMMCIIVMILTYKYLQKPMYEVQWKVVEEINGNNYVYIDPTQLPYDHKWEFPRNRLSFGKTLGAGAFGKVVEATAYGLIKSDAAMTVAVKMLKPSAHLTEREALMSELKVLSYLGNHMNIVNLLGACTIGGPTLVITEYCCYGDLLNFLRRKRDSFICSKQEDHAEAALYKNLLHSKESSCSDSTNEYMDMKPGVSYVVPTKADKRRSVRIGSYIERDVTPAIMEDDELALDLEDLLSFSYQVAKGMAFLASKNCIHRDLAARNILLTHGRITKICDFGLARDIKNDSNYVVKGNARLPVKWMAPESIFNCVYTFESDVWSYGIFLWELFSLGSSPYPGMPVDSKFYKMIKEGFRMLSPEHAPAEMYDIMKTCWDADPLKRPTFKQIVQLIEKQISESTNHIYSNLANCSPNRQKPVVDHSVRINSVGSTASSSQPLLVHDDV
Chain of MELK (Q14680 whole entry): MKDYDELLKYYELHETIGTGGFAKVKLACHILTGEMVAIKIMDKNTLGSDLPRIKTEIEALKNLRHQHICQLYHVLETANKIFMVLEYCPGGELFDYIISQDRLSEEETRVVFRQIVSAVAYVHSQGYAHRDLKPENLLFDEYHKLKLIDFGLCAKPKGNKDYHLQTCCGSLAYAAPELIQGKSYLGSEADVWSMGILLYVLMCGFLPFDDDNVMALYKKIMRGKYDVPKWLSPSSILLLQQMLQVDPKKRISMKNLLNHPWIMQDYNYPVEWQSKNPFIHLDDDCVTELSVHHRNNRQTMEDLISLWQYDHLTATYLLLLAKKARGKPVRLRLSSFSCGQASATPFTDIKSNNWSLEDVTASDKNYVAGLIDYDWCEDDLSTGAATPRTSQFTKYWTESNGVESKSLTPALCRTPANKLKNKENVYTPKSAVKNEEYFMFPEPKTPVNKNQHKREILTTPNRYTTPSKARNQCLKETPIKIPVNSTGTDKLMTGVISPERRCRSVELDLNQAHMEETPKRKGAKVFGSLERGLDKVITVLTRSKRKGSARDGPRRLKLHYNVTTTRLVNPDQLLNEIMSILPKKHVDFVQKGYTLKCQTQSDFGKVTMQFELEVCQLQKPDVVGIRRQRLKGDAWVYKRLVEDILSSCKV
Chain of GSK3beta (P49841 whole entry): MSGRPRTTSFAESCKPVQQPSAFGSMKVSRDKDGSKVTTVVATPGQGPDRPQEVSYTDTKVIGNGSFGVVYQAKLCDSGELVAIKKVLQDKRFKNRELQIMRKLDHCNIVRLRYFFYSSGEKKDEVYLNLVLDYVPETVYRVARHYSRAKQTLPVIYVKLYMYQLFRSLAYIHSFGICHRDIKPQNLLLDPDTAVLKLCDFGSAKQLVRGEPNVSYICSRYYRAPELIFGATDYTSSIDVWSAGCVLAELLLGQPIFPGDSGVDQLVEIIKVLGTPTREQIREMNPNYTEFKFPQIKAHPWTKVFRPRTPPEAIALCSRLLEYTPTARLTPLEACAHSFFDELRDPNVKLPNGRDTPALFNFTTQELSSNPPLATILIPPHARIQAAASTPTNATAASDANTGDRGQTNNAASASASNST

IC50 [1]: 2990 nM
IC50 [2]: 1900 nM
IC50 [3]: 1920 nM
IC50 [4]: 2610 nM
IC50 [5]: 6330 nM
Compound: CNC(=O)c1cc2n(c1)CCc1c(NC(=O)c3ccc(N4CCN(C)CC4)cc3)n[nH]c1-2 [Example A16-M1-B18]
